Source: patent US20030044399A1, “Method of treatment” (SmithKline Beecham Corporation, priority 1998, published 2003)
pKi: −log10 of the molar value. Where two headings read alike, the source gives them in different places.

Tests used:
[1] = target: Rhodazain (Trypanosoma brucei rhodesiense, UniProt Q95PM0); assay: Cysteine protease inhibition, progress curve method, rhodazain; format: biochemical, Trypanosoma brucei rhodesiensi; conditions: 10 uM Cbz-Leu-Arg-AMC, 100 mM Na acetate pH 5.5, 5 mM cysteine; for Ki: Rhodazain Ki (nM)
Description: (§1) Standard assay conditions for the determination of kinetic constants used 10 uM fluorogenic peptide substrate, Cbz-Phe-Arg-AMC for the cysteine proteases from Leishmania spp and Schistosoma Mansoni, Cbz-Leu-Arg-AMC for the cysteine proteases from Plasmodium falciparum and Trypanosoma brucei rhodesiensi, and Ac-Lys-Glu-Lys-Leu-Arg-AMC (4 uM final substrate concentration) for the cysteine protease from Trypoanosoma cruzi, and were determined in 100 mM Na acetate at pH 5.5 containing 5 mM cysteine. Stock substrate solutions were prepared at concentrations of […] in DMSO with 10 uM (4 uM for Ac-Lys-Glu-Lys-Leu-Arg-AMC) final substrate concentration in the assays. The final DMSO concentration was 2% and the final volume was 100 uL. All assays were conducted at ambient temperature. Product progress curves were generated over 20 to 30 minutes following formation of AMC product.
(§2) Potential inhibitors were evaluated using the progress curve method. Assays were carried out in the presence of variable concentrations of test compound. Reactions were initiated by addition of enzyme to buffered solutions of inhibitor and substrate. Data analysis was conducted according to one of two procedures depending on the appearance of the progress curves in the presence of inhibitors. For those compounds whose progress curves were linear, apparent inhibition constants (Ki,app) were calculated according to equation 1 (Brandt et al., Biochemitsry, 1989, 28, 140):
(§3) v=VmA/[Ka(1+I/Ki,app)+A] (1)
(§4) Where v is the velocity of the reaction with maximal velocity Vm, A is the concentration of substrate with Michaelis constant of Ka, and I is the concentration of inhibitor.
(§5) [AMC]=vsst+(v0−vss)[1−exp (−kobst)]/kobs (2)
(§6) Where [AMC] is the concentration of product formed over time t, v0 is the initial reaction velocity and vss is the final steady state rate. Values for kobs were then analyzed as a linear function of inhibitor concentration to generate an apparent second order rate constant (kobs/inhibitor concentration or kobs/[I]) describing the time-dependent inhibition. A complete discussion of this kinetic treatment has been fully described (Morrison et al., Adv. Enzymol. Relat. Areas Mol. Biol., 1988, 61, 201).
(§7) Exemplary inhibition data for the compounds used in the present method collected in accordance with the above-described procedure are listed in Table I.

[2] = target: Cruzain (Trypanosoma cruzi, UniProt P25779); assay: Cysteine protease inhibition, progress curve method, cruzain; format: biochemical; conditions: 4 uM Ac-Lys-Glu-Lys-Leu-Arg-AMC, 100 mM Na acetate pH 5.5, 5 mM cysteine; read-out: Cruzain Ki
Description: as §1, §2, §3, §4, §5, §6, §7

Sequence of Cruzain (P25779 123-337): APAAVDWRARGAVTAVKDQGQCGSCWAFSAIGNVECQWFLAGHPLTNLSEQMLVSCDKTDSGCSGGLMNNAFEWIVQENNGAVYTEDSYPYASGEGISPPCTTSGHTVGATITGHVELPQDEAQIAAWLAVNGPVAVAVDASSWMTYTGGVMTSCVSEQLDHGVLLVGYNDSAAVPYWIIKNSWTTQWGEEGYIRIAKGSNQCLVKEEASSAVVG
Sequence of Rhodazain (Q95PM0 entry or part of it): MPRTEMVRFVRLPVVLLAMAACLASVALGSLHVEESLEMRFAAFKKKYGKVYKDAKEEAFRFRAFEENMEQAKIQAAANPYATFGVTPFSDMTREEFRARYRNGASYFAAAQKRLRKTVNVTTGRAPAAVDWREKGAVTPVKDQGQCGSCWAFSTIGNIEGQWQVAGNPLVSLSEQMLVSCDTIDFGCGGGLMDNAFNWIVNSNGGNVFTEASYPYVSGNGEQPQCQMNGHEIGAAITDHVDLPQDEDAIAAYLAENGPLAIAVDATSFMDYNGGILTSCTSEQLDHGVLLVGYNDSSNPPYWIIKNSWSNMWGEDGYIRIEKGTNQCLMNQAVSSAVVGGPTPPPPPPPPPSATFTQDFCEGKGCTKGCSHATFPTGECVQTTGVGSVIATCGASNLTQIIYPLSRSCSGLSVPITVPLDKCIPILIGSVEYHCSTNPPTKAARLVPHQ

Row | Compound | Ki [1] [nM] | pKi [2] | pKi ([1]; read-out: Rhodazain Ki)
1 | CC(C)C[C@@H](NC(=O)c1ccc(Br)o1)C(=O)N[C@@H]1CCCN(S(=O)(=O)c2cccc[n+]2[O-])CC1=O [Example 47] | 2.7 | 7.89 | 
2 | COc1ccc2oc(C(=O)N[C@@H](CC(C)C)C(=O)N[C@H]3CCCN(S(=O)(=O)c4ccccc4F)CC3=O)cc2c1 [Example 92, 5-Methoxy-benzofuran-2-carboxylic acid-{(S)-1-[1-(2-fluoro-benzenesulfonyl)-3-oxo-azepan-4-ylcarbamoyl]-3-methyl-butyl}-amide] | 6.3 | 7.31 | 
3 | CC(C)C[C@@H](NC(=O)c1ccnc2ccccc12)C(=O)N[C@@H]1CCCN(S(=O)(=O)c2ccccn2)CC1=O (stereo in doubt) [Example 26, Quinoline-4-carboxylic acid {(S)-3-methyl-1-[3-oxo-1-(pyridine-2-sulfonyl)-azepan-4-ylcarbamoyl]-butyl}amide] | 8.1 | 8.03 | 
4 | Cc1c(C(=O)N[C@@H](CC(C)C)C(=O)N[C@H]2CCCN(S(=O)(=O)c3ccccc3F)CC2=O)oc2ccccc12 [Example 94, 3-methylbenzofuran-2-carboxylic acid-{(S)-1-[1-(2-fluoro-benzenesulfonyl)-3-oxo-azepan-4-ylcarbamoyl]-3-methyl-butyl}-amide] | 9.4 | 8.07 | 
5 | COc1cc2cc(C(=O)N[C@H](CC(C)C)C(=O)N[C@@H]3CCCN(S(=O)(=O)c4cccc[n+]4[O-])CC3=O)oc2cc1OC [Example 52, 5,6-Dimethoxy-benzofuran-2-carboxylic acid {(S)-3-methyl-1-[3-oxo-1-(1-oxy-pyridine-2-sulfonyl)-azepan-4-ylcarbamoyl]-butyl}amide] | 3.3 | 7.32 | 
6 | Cc1ccc2oc(C(=O)NC(CC(C)C)C(=O)N[C@H]3CCN(S(=O)(=O)c4cccc[n+]4[O-])CCC3=O)c(C)c2c1 (single isomer, unassigned) [Example 206] | 4.9 | 8.18 | 
7 | COc1ccc2oc(C(=O)N[C@H](CC(C)C)C(=O)N[C@@H]3CCCN(S(=O)(=O)c4cccc[n+]4[O-])CC3=O)cc2c1 (single isomer, unassigned) [Example 63] | 5.9 | 8.01 | 
8 | CC(C)C[C@@H](NC(=O)c1ccc(Br)o1)C(=O)N[C@@H]1CCCN(S(=O)(=O)c2ccccn2)CC1=O (single isomer, unassigned) [Example 68] | 0.93 | 8.48 | 
9 | CC(C)C[C@@H](NC(=O)c1cnc2ccccc2n1)C(=O)N[C@@H]1CCCN(S(=O)(=O)c2ccccn2)CC1=O (stereo in doubt) [Example 30, Quinoxaline-2-carboxylic acid {(S)-3-methyl-1-[3-oxo-1-(pyridine-2-sulfonyl)-azepan-4-ylcarbamoyl]-butyl}amide] | 10 | 7.77 | 
10 | CC(C)C[C@@H](NC(=O)c1cc2ccccc2o1)C(=O)N[C@@H]1CCCN(S(=O)(=O)c2ccccn2)CC1=O [Example 16] | 5.5 | 8.21 | 
11 | CC(C)C[C@@H](NC(=O)c1cc2cc(F)ccc2o1)C(=O)N[C@@H]1CCCN(S(=O)(=O)c2ccccn2)CC1=O (single isomer, unassigned) [Example 168] | 2.7 |  | 
12 | CC(C)C[C@H](NC(=O)c1cc2ccccc2o1)C(=O)N[C@@H]1CCCN(S(C)(=O)=O)CC1=O [Example 112, Benzofuran-2-carboxylic acid-{(S)-1-(1-methanesulfonyl-3-oxo-azepan-4-ylcarbamoyl)-3-methyl-butyl]-amide] | 8.5 |  | 
13 | CC(C)C[C@@H](NC(=O)c1cc2cc(F)ccc2o1)C(=O)N[C@H]1CCCN(S(=O)(=O)c2ccccn2)CC1=O (stereo in doubt) [Example 166, 5-Fluoro-benzofuran-2-carboxylic acid {(S)-3-methyl-1-[3-oxo-1-(pyridine-2-sulfonyl)-azepan-4-ylcarbamoyl]-butyl}-amide] | 6 |  | 
14 | CCc1c(C(=O)N[C@@H](CC(C)C)C(=O)N[C@H]2CCN(S(=O)(=O)c3cccc[n+]3[O-])CCC2=O)oc2ccccc12 [Example 202, 3-Ethyl-benzofuran-2-carboxylic acid {(S)-3-methyl-1-[3-oxo-1-(1-oxy-pyridine-2-sulfonyl)-azepan-4-ylcarbamoyl]-butyl}-amide] | 8.7 |  | 
15 | CC(C)C[C@H](NC(=O)c1cc2ccccc2o1)C(=O)N[C@H]1CCCN(S(=O)(=O)c2ncc[nH]2)CC1=O [Example 41, Benzofuran-2-carboxylic acid {(S)-3-methyl-1-[1-(1H-imidazole-2-sulfonyl)-3-oxo-azepan-4-ylcarbamoyl]-butyl}amide] | 2.9 |  | 
16 | COc1ccc2oc(C(=O)N[C@@H](CC(C)C)C(=O)N[C@H]3CCCN(S(C)(=O)=O)CC3=O)cc2c1 [Example 81, 5-Methoxy-benzofuran-2-carboxylic acid [(S)-1-(1-methanesulfonyl-3-oxo-azepan-4-ylcarbamoyl)-3-methyl-butyl]-amide] | 7.2 |  | 
17 | O=C(N[C@H](Cc1ccccc1)C(=O)N[C@@H]1CCCN(S(=O)(=O)c2ccccn2)CC1=O)c1ccc2ccccc2n1 (stereo in doubt) [Example 180, Quinoline-2-carboxylic acid {(S)-1-[3-oxo-1-(pyridine-2-sulfonyl)-azepan-4-ylcarbamoyl]-2-phenyl-ethyl}-amide] | 9.3 |  | 
18 | O=C(N[C@H](CC1CCCCC1)C(=O)N[C@@H]1CCCN(S(=O)(=O)c2ccccn2)CC1=O)c1cc2ccccc2o1 (stereo in doubt) [Example 102, Benzofuran-2-carboxylic acid {(S)-2-cyclohexyl-1-[3-oxo-1-(pyridine-2-sulfonyl)-azepan-4-ylcarbamoyl]-ethyl}-amide] | 3.7 |  | 
19 | COc1ccc(C(=O)NC(CC(C)C)C(=O)N[C@@H]2CCCN(S(C)(=O)=O)CC2=O)cc1OC (some centres unmarked) [Example 113] | 7.8 |  | 
20 | CC(C)C[C@H](NC(=O)c1ccc(-c2ccc(Cl)cc2)o1)C(=O)N[C@@H]1CCCN(S(=O)(=O)c2ccccn2)CC1=O [Example 65, 5-(4-Chloro-phenyl)-furan-2-carboxylic acid {(S)-3-methyl-1-[3-oxo-1-(pyridine-2-sulfonyl)-azepan-4-ylcarbamoyl]-butyl}amide] | 8.1 |  | 
21 | CC(C)C[C@@H](NC(=O)c1ccc2ccccc2c1)C(=O)N[C@@H]1CCCN(S(=O)(=O)c2ccccn2)CC1=O (stereo in doubt) [Example 17, Naphthalene-2-carboxylic acid {(S)-3-methyl-1-[3-oxo-1-(pyridine-2-sulfonyl)-azepan-4-ylcarbamoyl]butyl}-amide] | 8.3 |  | 
22 | COc1ccc(CC(=O)N[C@@H](CC(C)C)C(=O)NC2CCCN(S(=O)(=O)c3ccccn3)CC2=O)cc1OCc1ccccc1 (some centres unmarked) [Example 123] | 31 |  | 
23 | CC(C)C[C@@H](NC(=O)c1cc2sccc2s1)C(=O)N[C@@H]1CCCN(S(=O)(=O)c2cccc[n+]2[O-])CC1=O [Example 62, Thieno[3,2-b]thiophene-2-carboxylic acid {(S)-3-methyl-1-[3-oxo-1-(1-oxy-pyridine-2-sulfonyl)-azepan-4-ylcarbamoyl]-butyl}amide] | 5.3 |  | 
24 | Naphthyridine-2-carboxylic acid {(S)-3-methyl-1-[3-oxo-1-(pyridine-2-sulfonyl)-azepan-4-ylcarbamoyl]-butyl}-amide [Example 177] |  |  | 8.05
25 | O=C(N[C@@H](Cc1ccccc1)C(=O)NC1CCCN(S(=O)(=O)c2ccccn2)CC1=O)c1cccc2cccnc12 (stereo partly drawn) [Example 176, Quinoline-8-carboxylic acid {(S)-1-[3-oxo-1-(pyridine-2-sulfonyl)-azepan-4-ylcarbamoyl]-2-phenyl-ethyl}-amide] | 5.9 |  | 
26 | CC(C)C[C@@H](NC(=O)c1cnc2ccccc2c1)C(=O)N[C@@H]1CCCN(S(=O)(=O)c2ccccn2)CC1=O [Example 27] | 13 |  | 
27 | CC(C)C[C@@H](NC(=O)c1ccc(-c2ccc([N+](=O)[O-])cc2)o1)C(=O)N[C@@H]1CCCN(S(=O)(=O)c2ccccn2)CC1=O (stereo in doubt) [Example 36, 5-(4-Nitro-phenyl)-furan-2-carboxylic acid {(S)-3-methyl-1-[3-oxo-1-(pyridine-2-sulfonyl)-azepan-4-ylcarbamoyl]-butyl}amide] | 9.1 |  | 
28 | CC(C)CC(NC(=O)c1ccco1)C(=O)N[C@@H]1CCCN(S(=O)(=O)c2cccc[n+]2[O-])CC1=O (stereo partly drawn) [Example 75, Furan-2-carboxylic acid {(S)-3-methyl-1-[3-oxo-1-(1-oxy-pyridine-2-sulfonyl)-azepan-4-ylcarbamoyl]-butyl}amide] | 7.5 |  | 
